We go through 14 molecules from patent US12404241B2 (Celgene Corporation, priority 2018, dated 2025).

For the experiment, the target named is T1, AR (Homo sapiens, UniProt P10275).
T1 construct: endogenous in cells; host or cells: VCaP cells
T1 sequence (P10275 1-920): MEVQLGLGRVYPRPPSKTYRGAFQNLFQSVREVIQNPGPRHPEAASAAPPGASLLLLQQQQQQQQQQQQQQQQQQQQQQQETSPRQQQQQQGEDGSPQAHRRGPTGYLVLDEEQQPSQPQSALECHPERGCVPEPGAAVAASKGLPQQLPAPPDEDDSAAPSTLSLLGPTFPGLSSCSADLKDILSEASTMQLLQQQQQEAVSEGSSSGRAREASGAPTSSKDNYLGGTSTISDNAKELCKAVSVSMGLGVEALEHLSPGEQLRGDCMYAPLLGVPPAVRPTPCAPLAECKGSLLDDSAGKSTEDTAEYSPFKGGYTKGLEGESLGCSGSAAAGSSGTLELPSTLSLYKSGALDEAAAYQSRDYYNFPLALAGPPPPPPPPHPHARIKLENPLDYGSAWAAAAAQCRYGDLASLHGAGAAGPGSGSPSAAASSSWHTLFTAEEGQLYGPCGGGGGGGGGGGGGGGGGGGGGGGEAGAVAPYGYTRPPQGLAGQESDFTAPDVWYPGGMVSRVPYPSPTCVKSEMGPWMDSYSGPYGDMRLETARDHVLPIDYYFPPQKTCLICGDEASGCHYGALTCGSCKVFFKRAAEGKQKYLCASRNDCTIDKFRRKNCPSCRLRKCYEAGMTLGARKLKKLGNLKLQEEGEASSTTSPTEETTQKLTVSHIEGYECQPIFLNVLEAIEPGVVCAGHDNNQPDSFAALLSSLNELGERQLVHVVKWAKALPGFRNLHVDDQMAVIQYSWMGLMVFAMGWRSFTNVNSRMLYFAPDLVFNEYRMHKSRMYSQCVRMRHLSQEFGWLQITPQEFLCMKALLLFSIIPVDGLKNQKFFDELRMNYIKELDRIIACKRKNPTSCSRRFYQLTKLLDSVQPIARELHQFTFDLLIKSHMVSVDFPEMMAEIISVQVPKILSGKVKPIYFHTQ
Description: VCAP AR Degradation Assay. Format: cell-based. To be noted: for Y (AR degradation efficiency, % of DMSO control): class symbols *; for DC50: class symbols A-C, read-out: DC50. The essentials: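 AR protein in lysates quantified by sandwich ELISA after 24 h exposure of VCaP cells at 37 °C to 10 concentrations (1:3 steps, 5 μM top, final). Four-parameter logistic fit of percent-of-DMSO levels gave DC50 (50% degradation), EC50 and minimal AR level Y.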

The DC50 is the midpoint of the concentration-degradation curve. Turning to `CCc1cc(N2C(=S)N(c3cnc(C#N)c(C(F)(F)F)c3)C(=O)C2(C)C)ccc1OCCN1CCN([C@H](C)C(=O)Nc2cccc(NC3CCC(=O)NC3=O)c2)CC1` (stereo partly drawn) [Example 119, (2R)-2-(4-(2-(4-(3-(6-cyano-5-(trifluoromethyl)pyridin-3-yl)-5,5-dimethyl-4-oxo-2-thioxoimidazolidin-1-yl)-2-ethylphenoxy)ethyl)piperazin-1-yl)-N-(3-(2,6-dioxopiperidin-3-ylamino)phenyl)propanamide], the “Y (AR degradation efficiency, % of DMSO control)” value is “* (0<Y<=25%)” and the DC50 is under 0.1 µM.

Regarding `CCc1cc(N2C(=S)N(c3cnc(C#N)c(C(F)(F)F)c3)C(=O)C2(C)C)ccc1OCCN1C[C@H]2C[C@@H]1CN2CC(=O)Nc1cc(Cl)cc(NC2CCC(=O)NC2=O)c1` (stereo partly drawn) [Example 120, N-(3-chloro-5-(2,6-dioxopiperidin-3-ylamino)phenyl)-2-((1R,4R)-5-(2-(4-(3-(6-cyano-5-(trifluoromethyl)pyridin-3-yl)-5,5-dimethyl-4-oxo-2-thioxoimidazolidin-1-yl)-2-ethylphenoxy)ethyl)-2,5-diazabicyclo[2.2.1]heptan-2-yl)acetamide], the “Y (AR degradation efficiency, % of DMSO control)” value is listed as “** (25%<Y<=35%)” and the half-maximal degradation concentration (DC50) was in the range of 0.1 to 0.5 µM.

In the case of `CCc1cc(N2C(=S)N(c3ccc(C#N)c(C(F)(F)F)c3)C(=O)C2(C)C)ccc1OCCN1C[C@@H](C)N(CC(=O)Nc2cccc(NC3CCC(=O)NC3=O)c2)C[C@@H]1C` (stereo partly drawn) [Example 121, 2-((2R,5S)-4-(2-(4-(3-(4-cyano-3-(trifluoromethyl)phenyl)-5,5-dimethyl-4-oxo-2-thioxoimidazolidin-1-yl)-2-ethylphenoxy)ethyl)-2,5-dimethylpiperazin-l-yl)-N-(3-(2,6-dioxopiperidin-3-ylamino)phenyl)acetamide], the “Y (AR degradation efficiency, % of DMSO control)” value is listed as “* (0<Y<=25%)” and the DC50 is under 0.1 µM.

For the molecule `CCc1cc(N2C(=S)N(c3ccc(C#N)c(C(F)(F)F)c3)C(=O)C2(C)C)ccc1OCCN1C[C@H](C)N(CC(=O)Nc2cccc(NC3CCC(=O)NC3=O)c2)C[C@H]1C` (stereo partly drawn) [Example 122, 2-((2S,5R)-4-(2-(4-(3-(4-cyano-3-(trifluoromethyl)phenyl)-5,5-dimethyl-4-oxo-2-thioxoimidazolidin-1-yl)-2-ethylphenoxy)ethyl)-2,5-dimethylpiperazin-1-yl)-N-(3-(2,6-dioxopiperidin-3-ylamino)phenyl)acetamide], the “Y (AR degradation efficiency, % of DMSO control)” value is on record as “** (25%<Y<=35%)” and the DC50 lay within 0.1 to 0.5 µM.

Consider `CCc1cc(N2C(=S)N(c3ccc(C#N)c(C(F)(F)F)c3)C(=O)C2(C)C)ccc1OCCN1C[C@@H](C)N(CC(=O)Nc2cc(Cl)cc(NC3CCC(=O)NC3=O)c2)C[C@@H]1C` (stereo partly drawn) [Example 123, N-(3-chloro-5-(2,6-dioxopiperidin-3-ylamino)phenyl)-2-((2R,5S)-4-(2-(4-(3-(4-cyano-3-(trifluoromethyl)phenyl)-5,5-dimethyl-4-oxo-2-thioxoimidazolidin-1-yl)-2-ethylphenoxy)ethyl)-2,5-dimethylpiperazin-1-yl)acetamide], for which the “Y (AR degradation efficiency, % of DMSO control)” value is given as “* (0<Y<=25%)” and the DC50 was under 0.1 µM.

With `CCc1cc(N2C(=S)N(c3ccc(C#N)c(C(F)(F)F)c3)C(=O)C2(C)C)ccc1OCCN1C[C@H](C)N(CC(=O)Nc2cc(Cl)cc(NC3CCC(=O)NC3=O)c2)C[C@H]1C` (stereo partly drawn) [Example 124, N-(3-chloro-5-(2,6-dioxopiperidin-3-ylamino)phenyl)-2-((2S,5R)-4-(2-(4-(3-(4-cyano-3-(trifluoromethyl)phenyl)-5,5-dimethyl-4-oxo-2-thioxoimidazolidin-1-yl)-2-ethylphenoxy)ethyl)-2,5-dimethylpiperazin-1-yl)acetamide], the “Y (AR degradation efficiency, % of DMSO control)” value is “* (0<Y<=25%)” and the DC50 was 0.1 to 0.5 µM.

As to `CCc1cc(N2C(=S)N(c3ccc(C#N)c(C(F)(F)F)c3)C(=O)C2(C)C)ccc1OCCN1C[C@H](C)N(CC(=O)Nc2cccc(NC3CCC(=O)NC3=O)c2)C[C@@H]1C` (stereo partly drawn) [Example 125, 2-((2S,5S)-4-(2-(4-(3-(4-cyano-3-(trifluoromethyl)phenyl)-5,5-dimethyl-4-oxo-2-thioxoimidazolidin-1-yl)-2-ethylphenoxy)ethyl)-2,5-dimethylpiperazin-1-yl)-N-(3-(2,6-dioxopiperidin-3-ylamino)phenyl)acetamide], the “Y (AR degradation efficiency, % of DMSO control)” value was “* (0<Y<=25%)” and the DC50 fell in the range of 0.1 to 0.5 µM.

As for `CCc1cc(N2C(=S)N(c3ccc(C#N)c(C(F)(F)F)c3)C(=O)C2(C)C)ccc1OCCN1C[C@H](C)N(CC(=O)Nc2cc(Cl)cc(NC3CCC(=O)NC3=O)c2)C[C@@H]1C` (stereo partly drawn) [Example 126, N-(3-chloro-5-(2,6-dioxopiperidin-3-ylamino)phenyl)-2-((2S,5S)-4-(2-(4-(3-(4-cyano-3-(trifluoromethyl)phenyl)-5,5-dimethyl-4-oxo-2-thioxoimidazolidin-1-yl)-2-ethylphenoxy)ethyl)-2,5-dimethylpiperazin-1-yl)acetamide], the “Y (AR degradation efficiency, % of DMSO control)” value is listed as “* (0<Y<=25%)” and the DC50 is under 0.1 µM.

Regarding `CCc1cc(N2C(=S)N(c3ccc(C#N)c(C(F)(F)F)c3)C(=O)C2(C)C)ccc1OCCN1C[C@@H](C)N(CC(=O)Nc2cccc(NC3CCC(=O)NC3=O)c2)C[C@H]1C` (stereo partly drawn) [Example 127, 2-((2R,5R)-4-(2-(4-(3-(4-cyano-3-(trifluoromethyl)phenyl)-5,5-dimethyl-4-oxo-2-thioxoimidazolidin-1-yl)-2-ethylphenoxy)ethyl)-2,5-dimethylpiperazin-1-yl)-N-(3-(2,6-dioxopiperidin-3-ylamino)phenyl)acetamide], the “Y (AR degradation efficiency, % of DMSO control)” value is listed as “* (0<Y<=25%)” and the DC50 is under 0.1 µM.

`CCc1cc(N2C(=S)N(c3ccc(C#N)c(C(F)(F)F)c3)C(=O)C2(C)C)ccc1OCCN1C[C@@H](C)N(CC(=O)Nc2cc(Cl)cc(NC3CCC(=O)NC3=O)c2)C[C@H]1C` (stereo partly drawn) [Example 128, N-(3-chloro-5-(2,6-dioxopiperidin-3-ylamino)phenyl)-2-((2R,5R)-4-(2-(4-(3-(4-cyano-3-(trifluoromethyl)phenyl)-5,5-dimethyl-4-oxo-2-thioxoimidazolidin-1-yl)-2-ethylphenoxy)ethyl)-2,5-dimethylpiperazin-1-yl)acetamide]: the “Y (AR degradation efficiency, % of DMSO control)” value is on record as “* (0<Y<=25%)” and the DC50 was under 0.1 µM.

For the molecule `CCc1cc(N2C(=S)N(c3ccc(C#N)c(C(F)(F)F)c3)C(=O)C2(C)C)ccc1OCCN1C[C@@H](C)N(CC(=O)Nc2cccc(NC3CCC(=O)NC3=O)c2)[C@H](C)C1` (stereo partly drawn) [Example 129, 2-((2R,6R)-4-(2-(4-(3-(4-cyano-3-(trifluoromethyl)phenyl)-5,5-dimethyl-4-oxo-2-thioxoimidazolidin-1-yl)-2-ethylphenoxy)ethyl)-2,6-dimethylpiperazin-1-yl)-N-(3-(2,6-dioxopiperidin-3-ylamino)phenyl)acetamide], the “Y (AR degradation efficiency, % of DMSO control)” value was “* (0<Y<=25%)” and the DC50 was under 0.1 µM.

For the molecule `CCc1cc(N2C(=S)N(c3ccc(C#N)c(C(F)(F)F)c3)C(=O)C2(C)C)ccc1OCCN1C[C@@H](C)N(CC(=O)Nc2cc(Cl)cc(NC3CCC(=O)NC3=O)c2)[C@H](C)C1` (stereo partly drawn) [Example 130, N-(3-chloro-5-(2,6-dioxopiperidin-3-ylamino)phenyl)-2-((2R,6R)-4-(2-(4-(3-(4-cyano-3-(trifluoromethyl)phenyl)-5,5-dimethyl-4-oxo-2-thioxoimidazolidin-1-yl)-2-ethylphenoxy)ethyl)-2,6-dimethylpiperazin-1-yl)acetamide], the “Y (AR degradation efficiency, % of DMSO control)” value is on record as “* (0<Y<=25%)” and the DC50 was under 0.1 µM.

For the molecule `CCc1cc(N2C(=S)N(c3cnc(C#N)c(C(F)(F)F)c3)C(=O)C2(C)C)ccc1OCCN1CCN(CC(=O)Nc2cc(Cl)cc(NC3CCC(=O)NC3=O)c2)[C@@H](C)C1` (stereo partly drawn) [Example 131, N-(3-chloro-5-(2,6-dioxopiperidin-3-ylamino)phenyl)-2-((S)-4-(2-(4-(3-(6-cyano-5-(trifluoromethyl)pyridin-3-yl)-5,5-dimethyl-4-oxo-2-thioxoimidazolidin-1-yl)-2-ethylphenoxy)ethyl)-2-methylpiperazin-1-yl)acetamide], the “Y (AR degradation efficiency, % of DMSO control)” value is “* (0<Y<=25%)” and the DC50 is under 0.1 µM.

In the case of `CCc1cc(N2C(=S)N(c3ccc(C#N)c(C(F)(F)F)c3)C(=O)C23CCC3)ccc1OCCN1CCN(CC(=O)Nc2cccc(NC3CCC(=O)NC3=O)c2)CC1` (stereo not shown) [Example 132, 2-(4-(2-(4-(7-(4-cyano-3-(trifluoromethyl)phenyl)-8-oxo-6-thioxo-5,7-diazaspiro[3.4]octan-5-yl)-2-ethylphenoxy)ethyl)piperazin-1-yl)-N-(3-(2,6-dioxopiperidin-3-ylamino)phenyl)acetamide], the “Y (AR degradation efficiency, % of DMSO control)” value was “* (0<Y<=25%)” and the 50% degradation concentration (DC50) is under 0.1 µM.
